Laboratory results reported in US6413937B1, “Combinations for use in increasing the potency of a substrate for multidrug resistance related protein” (Dublin City University and Enterprise Ireland, priority 1996, dated 2002).
“Also recorded” adds a separate entry of the source.

How the values were obtained:
MRP pump = molecular target: T1, MRP pump (Homo sapiens, UniProt P33527); test: ATP-dependent transport of [3H]LTC4 into inside-out plasma membrane vesicles from HL60ADR cells; type: biochemical; settings: for MRP-pump inhibitory activity: conclusion from Table 4
T1 construct: inside-out plasma membrane vesicles prepared from HL60ADR cells; endogenous in cells; host or cells: HL60ADR cells (plasma membrane vesicles)
Method: To determine if the NSAIDs were acting directly on the MRP pump the uptake of [^3H]LTC4 into inside-out plasma membrane vesicles prepared from HL60ADR cells was examined using a rapid filtration procedure (Ishikawa,T., et al. (1994); J. Biol. Chem. 269 (46); 29085-29093). ATP-dependent transport of [^3H]LTC4 into the membrane vesicles was measured by a rapid filtration method using a Millipore sampling manifold. The membrane vesicles were thawed at 37° C. before use and kept on ice. The reaction components consisted of 0.25 M sucrose/10 mM Tris.HCl pH 7.4/1 mM ATP/10 mM MgCl2/10 mM creatine phosphate/ 110 μg/ml creatine kinase and 10 nM [^3H]LTC4, with 50 μg of the inside-out vesicle preparation, in a final volume of 110 μl. This suspension was incubated at 37° C., with gentle mixing, and aliquots, 20 μl, were taken at the indicated points. Those aliquots were diluted in 1 ml of ice-cold incubation buffer before being applied to 0.22 μm Millipore GSWP nitrocellulose filters, pre-soaked in ice-cold incubation buffer, under suction. The filters were subsequently washed with 3 ml ice-cold incubation buffer, and absorbed radioactivity was measured using a scintillation counter (Beckman). In control experiments ATP was replaced with 5μ-AMP to determine the ATP-dependent transport.

DLKP cells = test: Example 5 miniaturised in vitro cell toxicity assay, DLKP; type: cell-based, human
Method: For the monolayer cell lines miniaturised in vitro assays were used to determine drug toxicity. On Day I cells were seeded at 1×10^3 cells/well in a 96-well plate and left to attach overnight. Drug was added on Day 2, and the assay was terminated on Day 7. Cell number was then evaluated by using one of two colorimetric end-point […]: the acid phosphatase assay (Martin, A., and Clynes, M. (1991); In vitro Cell and Development Biology, 27A: 183-184) or the crystal violet dye elution assay (Martin, A., and Clynes, M. (1993); Cytotechnology, 11:49-58). All assays were performed in triplicate.

[1] = system: GST prepared from DLKP cells; test: total GST assay with 1-chloro-2,4-dinitrobenzene; type: biochemical, human
Method: The other NSAIDs were tested in a total GST assay (Habig, W. H., and Jakoby, W. B., (1981); Methods Enzymol., 77: 218-231). Total cellular GST activity was assayed, using 1-chloro-2,4-dinitrobenzene as a substrate, according to the method of Habig, W. H., and Jakoby, W. B., (1981); supra. Due to spectrophotometric interference at 340 nm, caused by the majority of the NSAIDs, the assays were all performed at 360 nm, without any apparent effect on the rate of the control reaction The results are shown in Table 5.

A549 cell line = test: miniaturised in vitro colorimetric cell survival assay (acid phosphatase end-point), A549; type: cell-based, human; settings: alone or + Adriamycin 40 ng/ml
Method: All the results presented in this Example for the DLKP, A549 and OAW42-SR cell lines were derived using the same miniaturised in vitro calorimetric assay system. On Day 1 of the assay 1000 cells/well/100 μl were plated into 96-well plates. Cells were allowed to attach overnight and cell viability was visually assessed. […] NSAID plus chemotherapeutic drug) to be analysed were added onto the cells. The individual drugs were added separately in 50 μl quantities (4× stocks, to take into account the dilution effect of having 200 μl final volume in each well). The drugs were left on the cells for five further days (Day 7) and cell number was determined using the acid phosphatase end-point assay which uses p-nitrophenol phosphate as substrate (Martin, A. and Clynes, M. (1991) In Vitro Dev. Biol., 27A, 183-184). On Day 7 the culture medium was removed from the cells and they were washed once with phosphate buffered saline (PBS). […] After the incubation period 50 μl of 1N NaOH was added to each well to develop the colour. The plates were then read at 405 nm (reference 620 nm) on an ELISA plate-reader. […] All results are the cell survival means ±S.D. from a minimum of three experiments.

MRP-specific substrates = test: screen for enhancement of toxicity of MRP substrates by NSAIDs; type: cell-based; settings: summary statements
[2] = read-out: % inhibition of transport of [3H]LTC4

T1 sequence (P33527 whole entry): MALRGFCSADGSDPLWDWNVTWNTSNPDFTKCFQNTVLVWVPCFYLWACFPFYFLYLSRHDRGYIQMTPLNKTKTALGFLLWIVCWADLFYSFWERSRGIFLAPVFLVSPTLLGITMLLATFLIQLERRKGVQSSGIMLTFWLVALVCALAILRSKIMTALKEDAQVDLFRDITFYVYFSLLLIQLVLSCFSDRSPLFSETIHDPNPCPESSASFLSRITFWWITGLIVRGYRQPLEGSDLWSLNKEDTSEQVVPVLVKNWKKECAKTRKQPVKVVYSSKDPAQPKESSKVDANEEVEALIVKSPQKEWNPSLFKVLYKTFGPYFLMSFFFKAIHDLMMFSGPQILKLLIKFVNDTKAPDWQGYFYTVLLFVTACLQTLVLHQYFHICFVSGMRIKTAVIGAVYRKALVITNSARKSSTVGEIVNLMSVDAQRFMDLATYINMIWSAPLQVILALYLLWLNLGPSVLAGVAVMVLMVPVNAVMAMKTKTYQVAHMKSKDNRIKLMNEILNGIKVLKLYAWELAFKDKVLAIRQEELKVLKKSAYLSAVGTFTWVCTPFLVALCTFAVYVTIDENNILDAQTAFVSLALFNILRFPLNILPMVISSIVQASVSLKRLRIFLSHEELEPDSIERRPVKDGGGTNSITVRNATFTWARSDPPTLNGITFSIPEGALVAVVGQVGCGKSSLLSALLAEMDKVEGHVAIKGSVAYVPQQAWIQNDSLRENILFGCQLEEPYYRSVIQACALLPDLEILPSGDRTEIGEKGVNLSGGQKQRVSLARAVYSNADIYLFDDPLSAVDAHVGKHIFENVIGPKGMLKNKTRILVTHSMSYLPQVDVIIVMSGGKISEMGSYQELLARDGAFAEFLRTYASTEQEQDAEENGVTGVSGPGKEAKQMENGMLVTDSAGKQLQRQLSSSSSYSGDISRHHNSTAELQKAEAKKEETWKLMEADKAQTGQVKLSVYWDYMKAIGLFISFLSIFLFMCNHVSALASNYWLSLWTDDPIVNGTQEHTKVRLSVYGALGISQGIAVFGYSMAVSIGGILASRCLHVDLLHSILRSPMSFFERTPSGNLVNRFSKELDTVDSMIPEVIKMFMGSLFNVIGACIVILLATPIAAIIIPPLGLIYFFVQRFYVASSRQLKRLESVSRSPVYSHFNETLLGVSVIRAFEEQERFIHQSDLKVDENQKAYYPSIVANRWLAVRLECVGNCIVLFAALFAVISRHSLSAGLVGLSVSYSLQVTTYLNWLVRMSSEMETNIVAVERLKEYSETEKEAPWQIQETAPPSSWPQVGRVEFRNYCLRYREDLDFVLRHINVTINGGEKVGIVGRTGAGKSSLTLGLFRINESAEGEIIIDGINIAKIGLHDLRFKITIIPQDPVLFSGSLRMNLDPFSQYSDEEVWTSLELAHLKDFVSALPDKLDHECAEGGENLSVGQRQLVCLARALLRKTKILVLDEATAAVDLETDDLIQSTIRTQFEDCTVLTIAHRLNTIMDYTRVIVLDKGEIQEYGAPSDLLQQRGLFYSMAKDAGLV

Row | Compound | MRP-pump inhibitory activity (MRP pump) | inhibition at 49 µM (MRP pump; [2]) [%] | inhibition at 98 µM (MRP pump; [2]) [%] | % cell survival (DLKP cells; Indomethacin 0.6 μg/ml, alone or + Teniposide 6.25 ng/ml) [%] | % cell survival (DLKP cells; Indomethacin 1.25 μg/ml, alone or + Teniposide 6.25 ng/ml) [%] | % cell survival (DLKP cells; Indomethacin 2.5 μg/ml, alone or + Teniposide 6.25 ng/ml) [%] | % Inhibition of GST ([1]; 0.4 mM) [%] | % cell survival (A549 cell line; ix) Indomethacin 0.60 μg/ml) [%] | % cell survival (A549 cell line; ix) Indomethacin 1.20 μg/ml) [%] | % cell survival (A549 cell line; ix) Indomethacin 2.40 μg/ml) [%] | enhancement of toxicity of MRP substrates (MRP-specific substrates) | inhibition at 45 µM (MRP pump; 45 μM) [%] | inhibition at 89 µM (MRP pump; 89 μM) [%] | % cell survival (DLKP cells; Sulindac 1.5 μg/ml, alone or + Epirubicin 1 ng/ml) [%] | % cell survival (DLKP cells; Sulindac 3.0 μg/ml, alone or + Epirubicin 1 ng/ml) [%] | % cell survival (DLKP cells; Sulindac 6.0 μg/ml, alone or + Epirubicin 1 ng/ml) [%] | % Inhibition of GST ([1]; 0.25 mM) [%] | % cell survival (A549 cell line; xi) Sulindac 1.50 μg/ml) [%] | % cell survival (A549 cell line; xi) Sulindac 3.20 μg/ml) [%] | % cell survival (A549 cell line; xi) Sulindac 6.30 μg/ml) [%]
1 | COc1ccc2c(c1)c(CC(=O)O)c(C)n2C(=O)c1ccc(Cl)cc1 [Indomethacin, indomethacin] | have MRP-pump inhibitory activity | 20 | 70 | 102.06 ± 5.11 | 101.28 ± 5.12 | 96.18 ± 3.43 | 54 | 92.38 ± 13.30 | 87.54 ± 13.07 | 92.18 ± 7.09 | positive; also recorded: have been found to enhance the toxicity of MRP-specific substrates | – | – | – | – | – | – | – | – | –
2 | CC1=C(CC(=O)O)c2cc(F)ccc2/C1=C\c1ccc([S+](C)[O-])cc1 (stereo not shown) [Sulindac, sulindac] | have MRP-pump inhibitory activity | – | – | – | – | – | – | – | – | – | have been found to enhance the toxicity of MRP-specific substrates | 25 | 69 | 99.92 ± 3.3 | 100.29 ± 3.2 | 100.07 ± 3.6 | 42.6 | 100.00 ± 13.20 | 101.00 ± 12.14 | 96.01 ± 5.36
